Read-outs that look alike come from different tables or passages of the source.
How the values were obtained:
hNav1.8 = target: T1, hNav1.8 (Homo sapiens, UniProt Q9Y5Y9); assay: Manual patch-clamp IC50 on hNav1.8 channel current (HEK293 hNav1.8/β3); assay type: cell-based; settings: HEK293 stably expressing hNav1.8/β3, n = 2, read-out: Inhibitory activity (IC50)
T1 construct: host or cells: HEK293
Experimental: This experiment was performed by detecting the influence of 5 concentrations of the compound or a single point or two concentration points on the hNav1.8 channel current, the dose-response curve of the compound was obtained, and the IC50 was calculated. This experiment was conducted to include two parallel sample determinations.
• 1) Cells: The HEK293 cell line that stably expressed the hNav1.8/β3 ion channel was prepared in-house by the Biology Department of Pharmaron (Beijing) Co., Ltd. (The lentiviral vectors that respectively expressed human Nav1.8 and β3 were transduced into HEK293, and it was prepared after screening. Specific reference: Proc Natl Acad Sci U S A. 2022 Jul 26;119(30):e2208211119. doi: 10.1073/pnas.2208211119. and the Cell Lines / BSYS CHO NaV1.8/β3 Cell Line manual.). The cell line was cultured in a medium containing 90% DMEM, 10% fetal bovine serum, 100 U/mL penicillin-streptomycin solution, 0.75 µg/mL puromycin, and 100 µg/mL hygromycin. When the cell density had grown to 40% to 80% of the bottom area of the culture dish, digestion was performed with trypsin, and passage was carried out three times per week. […]

[1] = Pharmacokinetic determination in KM mice; assay type: in vivo
Experimental: Using KM mice as test animals, the pharmacokinetic behavior of the compounds in the examples in mouse plasma after administration by gavage at a dose of 10 mg/kg or by intravenous injection at a dose of 1 mg/kg was studied.
Male SPF-grade KM mice, with body weight (20 ± 2) g.
Drug preparation for the intragastric administration group: The drug concentration was prepared as 1 mg/mL, and the preparation solvent was Tween80 + 0.5% MC (v/v 1:99).
Drug preparation for the intravenous administration group: The drug concentration was prepared as 0.2 mg/mL, and the preparation solvent was 5% DMA + 5% Solutol HS-15 + 90% normal saline.
Intragastric administration group: The administration dose was 10 mg/kg, and the administration volume was 10 mL/kg.
Intravenous administration group: The administration dose was 1 mg/kg, and the administration volume was 5 mL/kg.
Intragastric administration: Blood was collected from mice before administration (0 h) and after administration at 0, 0.25 h, 0.5 h, 1 h, 2 h, 4 h, 6 h, 8 h, 10 h, and 24 h. Intravenous injection: Blood was collected before administration (0 h) and after administration at 5, 15, 30 min, 1, 2, 4, 6, 8, and 24 h.
Blood, approximately 0.1 mL, was collected by retro-orbital puncture and placed into EDTA-K2 anticoagulant tubes with labels. After blood collection, the tubes were gently and completely inverted three times to mix with the anticoagulant. The samples were then immediately placed in an ice-water bath and centrifuged at 4500 rpm for 10 min at 4°C. After centrifugation, the plasma was promptly aliquoted into EP tubes with corresponding labels and stored in a -80°C freezer.
After administration, 20 µL of mouse plasma was taken and placed into a 96-deep-well plate pre-filled with 20 µL of internal standard working solution. Methanol (400 µL) as the precipitating agent was added, vortexed for 10 min, and centrifuged at 4000 rpm for 15 min. A supernatant of 200 µL was transferred into another 96-deep-well plate pre-filled with 200 µL of ultrapure water, vortexed for 5 min, and centrifuged at 4000 rpm for 3 min. A supernatant of 5 µL was taken for LC-MS/MS analysis of plasma drug concentration.
The main pharmacokinetic parameters were calculated by WinNonlin 7.0, and the pharmacokinetic experimental results of mice are shown in Table 5 below. Table 5: Pharmacokinetic experimental results of mice

[2] = male, KM, mouse, in vivo, iv, 1 mg/kg
[3] = male, KM, mouse, in vivo, po, 10 mg/kg

T1 sequence (Q9Y5Y9 whole entry): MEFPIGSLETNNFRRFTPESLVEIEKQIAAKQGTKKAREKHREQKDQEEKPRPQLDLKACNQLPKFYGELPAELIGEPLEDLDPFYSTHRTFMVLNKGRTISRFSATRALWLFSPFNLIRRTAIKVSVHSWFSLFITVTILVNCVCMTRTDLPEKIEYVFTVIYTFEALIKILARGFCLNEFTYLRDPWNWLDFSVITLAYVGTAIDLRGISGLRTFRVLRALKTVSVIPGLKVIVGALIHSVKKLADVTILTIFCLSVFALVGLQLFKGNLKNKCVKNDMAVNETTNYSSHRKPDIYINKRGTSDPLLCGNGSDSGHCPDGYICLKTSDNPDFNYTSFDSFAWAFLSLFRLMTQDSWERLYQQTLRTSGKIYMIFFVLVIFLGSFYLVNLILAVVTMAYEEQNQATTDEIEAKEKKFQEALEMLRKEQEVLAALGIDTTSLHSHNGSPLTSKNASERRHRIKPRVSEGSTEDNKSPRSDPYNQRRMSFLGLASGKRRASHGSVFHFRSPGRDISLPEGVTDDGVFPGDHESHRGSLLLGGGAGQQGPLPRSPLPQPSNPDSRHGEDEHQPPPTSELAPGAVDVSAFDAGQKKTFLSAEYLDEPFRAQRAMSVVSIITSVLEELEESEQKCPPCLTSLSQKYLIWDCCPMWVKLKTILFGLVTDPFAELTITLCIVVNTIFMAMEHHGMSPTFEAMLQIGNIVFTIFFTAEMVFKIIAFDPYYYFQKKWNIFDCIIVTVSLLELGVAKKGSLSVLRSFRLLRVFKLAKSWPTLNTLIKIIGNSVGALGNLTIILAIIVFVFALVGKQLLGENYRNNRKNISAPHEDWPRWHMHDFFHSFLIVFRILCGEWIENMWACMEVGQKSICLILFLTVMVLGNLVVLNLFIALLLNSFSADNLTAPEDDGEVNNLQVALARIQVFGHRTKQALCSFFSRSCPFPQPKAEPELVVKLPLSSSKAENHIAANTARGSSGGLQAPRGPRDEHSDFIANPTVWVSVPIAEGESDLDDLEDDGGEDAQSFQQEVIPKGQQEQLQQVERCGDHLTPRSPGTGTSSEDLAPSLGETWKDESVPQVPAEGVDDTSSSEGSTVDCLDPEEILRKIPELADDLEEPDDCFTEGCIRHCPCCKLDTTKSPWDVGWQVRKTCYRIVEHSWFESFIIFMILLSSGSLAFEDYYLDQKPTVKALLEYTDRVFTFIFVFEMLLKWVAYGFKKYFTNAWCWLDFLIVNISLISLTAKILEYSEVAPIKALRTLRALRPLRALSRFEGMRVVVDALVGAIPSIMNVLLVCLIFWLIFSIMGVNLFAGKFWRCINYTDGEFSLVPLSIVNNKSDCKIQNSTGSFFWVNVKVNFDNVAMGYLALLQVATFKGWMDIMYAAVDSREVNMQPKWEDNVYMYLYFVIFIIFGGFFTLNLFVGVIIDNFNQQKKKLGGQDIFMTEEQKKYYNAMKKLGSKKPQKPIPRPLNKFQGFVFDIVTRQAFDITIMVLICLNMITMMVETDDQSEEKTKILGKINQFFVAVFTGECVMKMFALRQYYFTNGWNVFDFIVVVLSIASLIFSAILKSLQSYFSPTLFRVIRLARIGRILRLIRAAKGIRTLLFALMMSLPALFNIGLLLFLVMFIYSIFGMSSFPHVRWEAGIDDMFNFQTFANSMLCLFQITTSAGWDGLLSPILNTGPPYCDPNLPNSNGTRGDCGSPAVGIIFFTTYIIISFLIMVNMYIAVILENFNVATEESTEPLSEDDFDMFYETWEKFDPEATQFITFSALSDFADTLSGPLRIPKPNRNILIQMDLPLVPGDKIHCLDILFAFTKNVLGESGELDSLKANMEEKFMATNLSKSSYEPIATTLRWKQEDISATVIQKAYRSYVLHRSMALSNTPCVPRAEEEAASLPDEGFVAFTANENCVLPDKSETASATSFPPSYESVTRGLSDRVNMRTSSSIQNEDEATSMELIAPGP
T1 sequence (Q9NY72 25-215 partner limits assumed): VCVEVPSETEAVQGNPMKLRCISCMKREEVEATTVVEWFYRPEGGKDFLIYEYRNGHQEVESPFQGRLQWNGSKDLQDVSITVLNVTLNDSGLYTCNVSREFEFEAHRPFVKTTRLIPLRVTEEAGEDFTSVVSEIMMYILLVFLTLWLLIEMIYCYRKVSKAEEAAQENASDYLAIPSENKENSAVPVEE

bioavailability ([1]; male, KM, mouse, in vivo) [%]	AUC(0-t) [1, 2] [ng·h/mL]	Clearance CL/F [1, 2] [mL/min/kg]	Cmax [1, 2] [ng/mL]	Vd [1, 2] [L/kg]	half-life [1, 2] [h]	AUC(0-t) [1, 3] [ng·h/mL]	Cmax [1, 3] [ng/mL]	Tmax [1, 3] [h]	half-life [1, 3] [h]	Structure (SMILES)	IC50 (hNav1.8) [nM]	Peak concentration Cmax/C0 ([1]; KM mice, i.g. 10 mg/kg) [ng/mL]	Peak concentration Cmax/C0 ([1]; KM mice, i.v. 1 mg/kg) [ng/mL]	Vd ([1]; mouse, in vivo, iv, KM mice, i.v. 1 mg/kg, read-out: Apparent distribution Vss) [L/kg]	AUC(0-t) ([1]; mouse, in vivo, iv, KM mice, i.v. 1 mg/kg, read-out: Area under the curve AUC0-t) [ng·h/mL]	half-life ([1]; mouse, in vivo, iv, KM mice, i.v. 1 mg/kg, read-out: Half-life t1/2 (converted)) [h]	bioavailability ([1]; mouse, in vivo, po, KM mice, i.g. 10 mg/kg vs i.v. 1 mg/kg, read-out: Bioavailability) [%]	AUC(0-t) ([1]; mouse, in vivo, po, KM mice, i.g. 10 mg/kg, read-out: Area under the curve AUC0-t) [ng·h/mL]	half-life ([1]; mouse, in vivo, po, KM mice, i.g. 10 mg/kg, read-out: Half-life t1/2 (converted)) [h]	Tmax ([1]; mouse, in vivo, po, KM mice, i.g. 10 mg/kg, read-out: Time to peak Tmax) [h]
44.2	1020	15.222	621	2.48	1.99	4530	1330	1	1.97	COc1c([C@H]2[C@H](C(=O)Nc3ccnc(C(N)=O)c3)O[C@@](C)(C(F)(F)F)[C@H]2C)ccc(F)c1F [Reference compound, reference compound]	0.297	–	–	–	–	–	–	–	–	–
–	–	–	–	–	–	–	–	–	–	C[C@H]1[C@@H](c2ccc(F)c(F)c2OC2COC2)[C@H](C(=O)Nc2ccc(F)c(C(=N)NO)c2)O[C@@]1(C)C(F)(F)F [Example 11]	0.229	3413.33	612.43	1.4	1060	1.44	71.4	7540	1.37	0.25

— patent publication EP4775574A1, “FURAN RING-CONTAINING COMPOUND, PHARMACEUTICAL COMPOSITION THEREOF, AND USE THEREOF” (Wuhan Xirui Pharmaceutical Technology Co., Ltd, priority 2023, dated 2025)
